Values quoted from earlier work in patent US20200396993A1, “COMPOSITIONS AND METHODS FOR RELEASE OF CYCLOPROPENES” (Hazel Technologies, Inc., priority 2017, published 2020).
≈ marks a conversion by molar mass, not a printed value.

Conditions: in water

## CC1=CC1 [Sample 1-MCP, 1-methylcyclopropene]
  solubility: 137 µg/mL (≈ 2530 µM)
